Laboratory results: patent publication US6476027B1, “N-hydroxy 4-sulfonyl butanamide compounds” (Monsanto Company, priority 1997, dated 2002)
Structures can show the parent of a compound that is named as a salt.

Legend:
[1] = target: T1, recombinant human MMP-1 (Homo sapiens, UniProt P03956); experiment: In vitro metalloprotease inhibition, fluorogenic MCA peptide substrate; type: biochemical; details: room temperature, pH 7.5, 4 μM substrate, APMA-activated enzyme
T1 construct: made in house; host or cells: transfected HT-1080 cells (provided by Dr. Howard Welgus, Washington University)
T1 sequence (P03956 100-469): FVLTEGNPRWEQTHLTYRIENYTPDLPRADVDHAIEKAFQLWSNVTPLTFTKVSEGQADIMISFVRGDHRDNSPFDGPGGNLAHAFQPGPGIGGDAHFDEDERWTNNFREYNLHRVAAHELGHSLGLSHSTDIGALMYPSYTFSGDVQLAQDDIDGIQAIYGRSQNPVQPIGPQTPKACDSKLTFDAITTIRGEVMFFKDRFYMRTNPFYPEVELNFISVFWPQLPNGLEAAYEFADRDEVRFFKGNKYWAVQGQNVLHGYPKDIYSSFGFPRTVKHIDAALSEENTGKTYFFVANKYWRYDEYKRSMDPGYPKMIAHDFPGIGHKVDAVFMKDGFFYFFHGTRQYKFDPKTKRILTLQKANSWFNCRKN
Experimental: (§1) Briefly, 4-aminophenylmercuric acetate (APMA) or trypsin activated MMPs were incubated with various concentrations of the inhibitor compound at room temperature for 5 minutes.
(§2) More specifically, recombinant human MMP-13 and MMP-1 enzymes were prepared in laboratories of the assignee. MMP-13 was expressed in baculovirus as a proenzyme, and purified first over a heparin agarose column and then over a chelating zinc chloride column. The proenzyme was activated by APMA for use in the assay. MMP-1 expressed in transfected HT-1080 cells was provided by Dr. Howard Welgus of Washington University, St. Louis, Mo. The enzyme was also activated using APMA and was then purified over a hydroxamic acid column.
(§3) MCA-ProLeuGlyLeuDpaAlaArgNH^2, wherein MCA is methoxycoumarin and Dpa is 3-(2,4-dinitrophenyl)-L-2,3-diaminopropionyl alanine.
(§4) The buffer used for assays contained 100 mM Tris-HCl, 100 mM NaCl, 10 mM CaCl2 and 0.05 percent polyethyleneglycol (23) lauryl ether at a pH value of 7.5.

[2] = target: T2, recombinant human MMP-13 (Homo sapiens, UniProt P45452); experiment: as above; type: biochemical; details: room temperature, pH 7.5, 4 μM substrate, APMA-activated enzyme
T2 construct: made in house
Experimental: as §1, §2, §3, §4

[3] = target: T3, MMP-2 (Homo sapiens, UniProt P08253); experiment: as above; type: biochemical; details: room temperature, pH 7.5, 4 μM substrate
T3 sequence (P08253 110-660): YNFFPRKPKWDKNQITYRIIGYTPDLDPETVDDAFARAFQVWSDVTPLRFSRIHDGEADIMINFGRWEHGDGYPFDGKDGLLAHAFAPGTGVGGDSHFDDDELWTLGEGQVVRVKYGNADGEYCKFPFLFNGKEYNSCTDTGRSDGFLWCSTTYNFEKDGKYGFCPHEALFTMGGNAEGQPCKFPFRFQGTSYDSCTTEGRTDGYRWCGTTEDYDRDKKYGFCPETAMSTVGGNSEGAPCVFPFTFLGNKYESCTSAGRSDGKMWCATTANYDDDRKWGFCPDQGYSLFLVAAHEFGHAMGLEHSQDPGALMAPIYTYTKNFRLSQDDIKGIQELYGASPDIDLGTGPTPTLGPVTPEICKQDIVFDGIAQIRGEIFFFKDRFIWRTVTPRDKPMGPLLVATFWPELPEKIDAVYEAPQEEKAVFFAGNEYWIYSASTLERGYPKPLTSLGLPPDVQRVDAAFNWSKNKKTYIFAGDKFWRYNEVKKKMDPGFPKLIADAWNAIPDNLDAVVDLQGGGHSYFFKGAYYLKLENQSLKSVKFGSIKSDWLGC
Experimental: as §1, §3, §4

[4] = test system: advanced, rapidly progressive, treatment-refractory solid tumor cancers; details: cited from earlier work

Row | Compound | IC50 [1] | IC50 [2] | IC50 [3] | effect on cancer-specific antigens used as surrogate markers for biological activity ([4]; Phase I/II, colorectal, pancreatic, ovarian, prostate cancers) | most common drug-related toxicity ([4]; clinical trials, patients with advanced solid tumor cancers)
1 | Cc1ccc(Oc2ccc(S(=O)(=O)CCC(O)C(=O)NO)cc2)cc1C (racemic) [Example 7] | > 10000 nM | 400 nM | 120 nM |  | 
2 | CC(C)(CS(=O)(=O)c1ccc(Oc2ccccc2)cc1)[C@H](O)C(=O)NO [Example 1] | 6300 nM | 1.9 nM | 0.3 nM |  | 
3 | CC(C)(CS(=O)(=O)c1ccc(Oc2ccccc2)cc1)[C@@H](O)C(=O)NO [Example 2] | > 10000 nM | 8.8 nM | 2 nM |  | 
4 | CC(C)(CCS(=O)(=O)c1ccc(Oc2ccccc2)cc1)C(=O)NO [Example 3] | > 10000 nM | 2600 nM | 1000 nM |  | 
5 | O=C(NO)C(O)CCS(=O)(=O)c1ccc(Oc2ccccc2)cc1 (centres unmarked) [Example 4] | > 10000 nM | 54.4 nM | 15.8 nM |  | 
6 | CC(CCS(=O)(=O)c1ccc(Oc2ccccc2)cc1)C(=O)NO (centres unmarked) [Example 5] | > 10000 nM | 1.8 nM | 3.2 nM |  | 
7 | COc1ccc(S(=O)(=O)CCCC(=O)NO)cc1 [Example 6] |  | 2000 nM |  |  | 
8 | CC(C)(CS(=O)(=O)c1ccc(Oc2ccccc2)cc1)[C@H](OCc1cccnc1)C(=O)NO [Example 8a, (S)-N-Hydroxy-3,3-dimethyl-4-[(4-phenoxyphenyl)sulfonyl]-2-(3-pyridinylmethoxy)butanamide] | > 10000 nM | 5 nM | 2.2 nM |  | 
9 | CC(C)(CS(=O)(=O)c1ccc(Oc2ccccc2)cc1)[C@H](OCc1ccncc1)C(=O)NO [Example 9a, (S)-N-Hydroxy-3,3-dimethyl-4-[(4-phenoxyphenyl)sulfonyl]-2-(4-pyridinylmethoxy)butanamide] | 7000 nM | 3 nM | 1.3 nM |  | 
10 | CC(C)(CS(=O)(=O)c1ccc(Oc2ccccc2)cc1)[C@H](OCc1ccccn1)C(=O)NO [Example 10] |  | 2.4 nM | 1.5 nM |  | 
11 | CC(C)(C)OC(=O)N[C@H](C(=O)NO)C(C)(C)CS(=O)(=O)c1ccc(Oc2ccccc2)cc1 [Example 11] | 50 nM | < 0.1 nM | < 0.1 nM |  | 
12 | CC(C)(CS(=O)(=O)c1ccc(Oc2ccccc2)cc1)[C@H](N)C(=O)NO [Example 12] | 3300 nM | 1.6 nM | 0.3 nM |  | 
13 | CC(C)(CS(=O)(=O)c1ccc(Oc2ccccc2)cc1)[C@H](NC(=O)CN1CCOCC1)C(=O)NO [Example 13] | 770 nM | 1.4 nM | 0.3 nM |  | 
14 | CC(C)(CS(=O)(=O)c1ccc(Oc2ccccc2)cc1)[C@H](NC(=O)CN1CCOCC1)C(=O)NO [Example 13a, (S)-N-[1-[(Hydroxyamino)carbonyl]-2,2-dimethyl-3-[(4-phenoxyphenyl)sulfonyl]-propyl]-4-morpholineacetamide Monohydrochloride] | 1800 nM | 1.8 nM | 0.6 nM |  | 
15 | CC(C)(CS(=O)(=O)c1ccc(Oc2ccccc2)cc1)[C@H](NC(=O)CN1CCCC1)C(=O)NO [Example 14] | > 10000 nM | 2.4 nM | 1.8 nM |  | 
16 | O=C(NO)C(CCS(=O)(=O)c1ccc(Oc2ccccc2)cc1)N1CCCCC1 (centres unmarked) [Example 15] | > 10000 nM | 13.9 nM | 7.7 nM |  | 
17 | CC(C)(C)OC(=O)N1CCC(CCS(=O)(=O)c2ccc(Oc3ccccc3)cc2)(C(=O)NO)CC1 [Example 16] | > 10000 nM | 400 nM | 169 nM |  | 
18 | O=C(NO)C1(CCS(=O)(=O)c2ccc(Oc3ccccc3)cc2)CCNCC1 [Example 17] | > 10000 nM | 169 nM | 70 nM |  | 
19 | CNC(=O)[C@@H](NC(=O)[C@H](CC(C)C)[C@H](O)C(=O)NO)C(C)(C)C [marimastat, Marimastat] |  |  |  | dose-related reduction in the rise of cancer-specific antigens | musculoskeletal pain and stiffness
